In publication PMC3641313 (Korean Journal of Pediatrics, 2013):
“Also recorded” adds a separate entry of the source. Like-named read-outs stand apart in the source and are kept apart here.

System: viral NA of influenza A/H1N1
Assay type: biochemical, influenza A/H1N1 virus

CCOC(=O)C1=C[C@@H](OC(CC)CC)[C@H](NC(C)=O)[C@@H](N)C1 [Oseltamivir]
sensitivity or resistance of isolates by IC50 criteria (A/H1N1, first study period, both groups, […]): sensitivity | sensitivity or resistance of isolates by IC50 criteria (A/H1N1, second study period, both groups, […]): high-level drug resistance

CC(=O)N[C@H]1[C@H]([C@H](O)[C@H](O)CO)OC(C(=O)O)=C[C@@H]1N=C(N)N [Zanamivir]
resistance of influenza A/H1N1 isolates: no zanamivir resistance | sensitivity or resistance of isolates by IC50 criteria: sensitivity; also recorded: sensitive
